Laboratory results published in ChEMBL document CHEMBL3286266, “Development of novel benzomorpholine class of diacylglycerol acyltransferase I inhibitors” (ACS Med Chem Lett, 2014).
≈ marks a conversion by molar mass, not a printed value. Calls of active or inactive are those of the source. The rule behind the calls is not given here.

Experiments:
[1] = Total AUC in rat at 10 mg/kg; type: ADME, organism-based; parameters: time AUCmax, dose 10 mg/kg; conditions: in vivo
Mus musculus [2] = test: Reduction in triglycerides level in mouse at 1 mg/kg, po after 2 hrs by postprandial triglyceride assay; type: functional
Mus musculus [3] = test: Reduction in triglycerides level in mouse at 0.3 mg/kg, po after 2 hrs by postprandial triglyceride assay; type: functional
Cytochrome P450 2C9 = Cytochrome P450 2C9 (Homo sapiens, UniProt P11712); test: Inhibition of CYP2C9 (unknown origin)
[4] = molecular target: T1, Diacylglycerol O-acyltransferase 1 (Mus musculus, UniProt Q9Z2A7); test: Inhibition of mouse DGAT1 expressed in Sf9 insect cells using 1,2-dioleoyl-sn-glycerol and [14C]-palmitoyl-CoA substrate by scintillation counting analysis
T1 sequence (Q9Z2A7 whole entry): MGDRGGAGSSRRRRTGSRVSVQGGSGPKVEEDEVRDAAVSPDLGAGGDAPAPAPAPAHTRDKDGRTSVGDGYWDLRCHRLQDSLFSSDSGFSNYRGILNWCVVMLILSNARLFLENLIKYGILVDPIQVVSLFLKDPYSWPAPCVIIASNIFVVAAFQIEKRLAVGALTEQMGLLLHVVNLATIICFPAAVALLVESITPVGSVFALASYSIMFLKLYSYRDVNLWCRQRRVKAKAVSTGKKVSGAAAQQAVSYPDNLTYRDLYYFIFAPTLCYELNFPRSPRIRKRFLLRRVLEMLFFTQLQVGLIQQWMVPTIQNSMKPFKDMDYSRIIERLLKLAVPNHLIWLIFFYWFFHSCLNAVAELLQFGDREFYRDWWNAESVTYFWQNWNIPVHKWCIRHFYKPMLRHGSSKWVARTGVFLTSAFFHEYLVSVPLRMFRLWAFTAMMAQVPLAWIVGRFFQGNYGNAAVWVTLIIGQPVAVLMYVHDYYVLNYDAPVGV

[5] = Cmax in rat at 10 mg/kg, po; type: ADME, organism-based; parameters: dose 10 mg/kg, route oral; conditions: in vivo
[6] = Half life in monkey at 3 mg/kg, po; type: ADME, organism-based, Macaca mulatta; parameters: dose 3 mg/kg, route oral; conditions: rhesus monkey, in vivo
Mus musculus [7] = test: Induction of weight loss in diet-induced obese C57BL/6J mouse assessed as reduction in food intake at 30 mg/kg, po qd measured during 1 to 4 days; type: functional, organism-based; parameters: dose 30 mg/kg
[8] = Inhibition of CCK receptor (unknown origin); parameters: species or system Homo sapiens
Mus musculus [9] = test: Induction of weight loss in diet-induced obese C57BL/6J mouse assessed as decrease in body weight at 30 mg/kg, po qd measured during 11 day chronic study; type: functional; conditions: 264 h
[10] = Oral bioavailability in rat at 10 mg/kg; type: ADME, organism-based; conditions: in vivo
[11] = AUC in dog at 2 mg/kg, po; type: ADME, organism-based, Canis lupus familiaris; parameters: dose 2 mg/kg, route oral; conditions: plasma
Insulin receptor = Insulin receptor (Homo sapiens, UniProt P06213); test: Inhibition of insulin receptor (unknown origin)
[12] = Half life in mouse at 1 mg/kg, po; type: ADME, organism-based; parameters: dose 1 mg/kg, route oral; conditions: in vivo
Cannabinoid receptor 1 = Cannabinoid receptor 1 (Homo sapiens, UniProt P21554); test: Inhibition of CB1 receptor (unknown origin)
[13] = Inhibition of histamine receptor (unknown origin); parameters: species or system Homo sapiens
Mus musculus [14] = test: Reduction in triglycerides level in mouse at 3 mg/kg, po after 12 hrs by postprandial triglyceride assay; type: functional
Caspase-8 = Caspase-8 (Homo sapiens, UniProt Q14790); test: Inhibition of CASP8 (unknown origin)
[15] = Clearance in monkey liver hepatocytes measured per million cells; type: ADME, Macaca mulatta, Hepatocyte; conditions: rhesus monkey, read-out: CLH
[16] = Clearance in rat liver hepatocytes measured per million cells; type: ADME, cell-based, Hepatocyte; conditions: read-out: CLH
[17] = AUC in mouse at 1 mg/kg, po; type: ADME, organism-based; parameters: dose 1 mg/kg, route oral; conditions: plasma
[18] = Inhibition of neuropeptide Y receptor (unknown origin); parameters: species or system Homo sapiens
Caspase-9 = molecular target: T2, Caspase-9 (Homo sapiens, UniProt P55211); test: Inhibition of CASP9 (unknown origin)
T2 sequence (P55211 whole entry): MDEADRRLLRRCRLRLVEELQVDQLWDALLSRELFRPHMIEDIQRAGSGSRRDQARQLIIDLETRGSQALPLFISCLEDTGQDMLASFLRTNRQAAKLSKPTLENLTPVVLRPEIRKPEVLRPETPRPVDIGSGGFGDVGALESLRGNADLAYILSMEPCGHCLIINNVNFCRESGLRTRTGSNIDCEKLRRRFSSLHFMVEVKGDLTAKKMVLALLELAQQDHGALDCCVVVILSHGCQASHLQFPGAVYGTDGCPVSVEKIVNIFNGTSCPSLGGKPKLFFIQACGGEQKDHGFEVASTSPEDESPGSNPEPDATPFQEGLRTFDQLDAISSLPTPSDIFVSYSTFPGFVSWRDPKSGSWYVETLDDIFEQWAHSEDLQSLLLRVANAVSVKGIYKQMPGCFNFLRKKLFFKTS

[19] = Permeability in human Caco2 cells; type: ADME, cell-based; conditions: Caco-2, read-out: permeability
[20] = Cmax in dog at 2 mg/kg, po; type: ADME, organism-based, Canis lupus familiaris; parameters: dose 2 mg/kg, route oral; conditions: in vivo
[21] = molecular target: Epidermal growth factor receptor (Homo sapiens, UniProt P00533); test: Inhibition of EGF receptor (unknown origin)
[22] = AUC in monkey at 3 mg/kg, po; type: ADME, organism-based, Macaca mulatta; parameters: dose 3 mg/kg, route oral; conditions: rhesus monkey, plasma
[23] = Plasma protein binding in human; type: ADME, cell-free; conditions: read-out: PPB
Mus musculus [24] = test: Reduction in triglycerides level in mouse at 3 mg/kg, po after 2 hrs by postprandial triglyceride assay; type: functional
[25] = Inhibition of purinergic receptor (unknown origin); parameters: species or system Homo sapiens
[26] = Cmax in mouse at 1 mg/kg, po; type: ADME, organism-based; parameters: dose 1 mg/kg, route oral; conditions: in vivo
[27] = Half life in rat at 10 mg/kg, po; type: ADME, organism-based; parameters: dose 10 mg/kg, route oral; conditions: in vivo
D(2) dopamine receptor = D(2) dopamine receptor (Homo sapiens, UniProt P14416); test: Inhibition of D2 receptor (unknown origin)
[28] = Oral bioavailability in mouse at 1 mg/kg; type: ADME, organism-based; conditions: in vivo
[29] = Clearance in mouse liver hepatocytes measured per million cells; type: ADME, Hepatocyte; conditions: read-out: CLH
[30] = Solubility in plasma (unknown origin) at pH 7; type: ADME, cell-free
[31] = Plasma protein binding in mouse; type: ADME; conditions: read-out: PPB
[32] = Inhibition of serotonin receptor (unknown origin); parameters: species or system Homo sapiens
[33] = Cmax in monkey at 3 mg/kg, po; type: ADME, organism-based, Macaca mulatta; parameters: dose 3 mg/kg, route oral; conditions: rhesus monkey, in vivo
[34] = AUC in rat at 10 mg/kg, po; type: ADME, organism-based; parameters: dose 10 mg/kg, route oral; conditions: plasma
Hepatocyte = test: Clearance in human liver hepatocytes measured per million cells; type: ADME, cell-based
Prostacyclin receptor = Prostacyclin receptor (Homo sapiens, UniProt P43119); test: Inhibition of prostanoid IP receptor (unknown origin)
[35] = molecular target: T3, Diacylglycerol O-acyltransferase 1 (Homo sapiens, UniProt O75907); test: Inhibition of human DGAT1 expressed in Sf9 insect cells using 1,2-dioleoyl-sn-glycerol and [14C]-palmitoyl-CoA substrate by scintillation counting analysis
T3 sequence (O75907 whole entry): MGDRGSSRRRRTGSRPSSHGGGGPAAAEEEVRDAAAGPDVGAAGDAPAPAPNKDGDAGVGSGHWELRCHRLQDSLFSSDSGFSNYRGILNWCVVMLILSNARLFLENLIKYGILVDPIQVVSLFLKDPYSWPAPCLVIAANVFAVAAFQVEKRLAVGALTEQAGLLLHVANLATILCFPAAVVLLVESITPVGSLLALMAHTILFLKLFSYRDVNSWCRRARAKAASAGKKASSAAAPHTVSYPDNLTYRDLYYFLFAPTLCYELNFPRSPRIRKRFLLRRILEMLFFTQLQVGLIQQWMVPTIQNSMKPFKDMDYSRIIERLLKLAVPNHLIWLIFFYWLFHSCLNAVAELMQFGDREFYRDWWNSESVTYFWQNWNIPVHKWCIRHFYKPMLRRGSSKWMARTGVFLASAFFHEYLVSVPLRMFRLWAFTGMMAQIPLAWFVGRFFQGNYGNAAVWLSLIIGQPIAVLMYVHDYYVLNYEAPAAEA

[36] = Clearance in dog liver hepatocytes measured per million cells; type: ADME, Canis lupus familiaris, Hepatocyte; conditions: read-out: CLH
[37] = Half life in dog at 2 mg/kg, po; type: ADME, organism-based, Canis lupus familiaris; parameters: dose 2 mg/kg, route oral; conditions: in vivo

Chain of D(2) dopamine receptor (P14416 whole entry): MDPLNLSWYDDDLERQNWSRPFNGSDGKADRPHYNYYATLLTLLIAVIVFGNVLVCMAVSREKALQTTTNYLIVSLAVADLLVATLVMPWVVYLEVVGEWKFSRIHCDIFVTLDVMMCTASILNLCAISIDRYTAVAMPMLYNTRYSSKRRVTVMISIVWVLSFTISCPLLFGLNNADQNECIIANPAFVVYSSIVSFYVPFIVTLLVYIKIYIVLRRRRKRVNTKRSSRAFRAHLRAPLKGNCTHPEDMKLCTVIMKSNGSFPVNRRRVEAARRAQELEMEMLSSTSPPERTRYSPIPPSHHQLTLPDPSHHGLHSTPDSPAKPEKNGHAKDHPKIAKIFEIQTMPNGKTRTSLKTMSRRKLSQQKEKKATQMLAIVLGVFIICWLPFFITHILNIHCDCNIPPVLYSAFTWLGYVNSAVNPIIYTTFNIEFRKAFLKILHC
Chain of Epidermal growth factor receptor (P00533 whole entry): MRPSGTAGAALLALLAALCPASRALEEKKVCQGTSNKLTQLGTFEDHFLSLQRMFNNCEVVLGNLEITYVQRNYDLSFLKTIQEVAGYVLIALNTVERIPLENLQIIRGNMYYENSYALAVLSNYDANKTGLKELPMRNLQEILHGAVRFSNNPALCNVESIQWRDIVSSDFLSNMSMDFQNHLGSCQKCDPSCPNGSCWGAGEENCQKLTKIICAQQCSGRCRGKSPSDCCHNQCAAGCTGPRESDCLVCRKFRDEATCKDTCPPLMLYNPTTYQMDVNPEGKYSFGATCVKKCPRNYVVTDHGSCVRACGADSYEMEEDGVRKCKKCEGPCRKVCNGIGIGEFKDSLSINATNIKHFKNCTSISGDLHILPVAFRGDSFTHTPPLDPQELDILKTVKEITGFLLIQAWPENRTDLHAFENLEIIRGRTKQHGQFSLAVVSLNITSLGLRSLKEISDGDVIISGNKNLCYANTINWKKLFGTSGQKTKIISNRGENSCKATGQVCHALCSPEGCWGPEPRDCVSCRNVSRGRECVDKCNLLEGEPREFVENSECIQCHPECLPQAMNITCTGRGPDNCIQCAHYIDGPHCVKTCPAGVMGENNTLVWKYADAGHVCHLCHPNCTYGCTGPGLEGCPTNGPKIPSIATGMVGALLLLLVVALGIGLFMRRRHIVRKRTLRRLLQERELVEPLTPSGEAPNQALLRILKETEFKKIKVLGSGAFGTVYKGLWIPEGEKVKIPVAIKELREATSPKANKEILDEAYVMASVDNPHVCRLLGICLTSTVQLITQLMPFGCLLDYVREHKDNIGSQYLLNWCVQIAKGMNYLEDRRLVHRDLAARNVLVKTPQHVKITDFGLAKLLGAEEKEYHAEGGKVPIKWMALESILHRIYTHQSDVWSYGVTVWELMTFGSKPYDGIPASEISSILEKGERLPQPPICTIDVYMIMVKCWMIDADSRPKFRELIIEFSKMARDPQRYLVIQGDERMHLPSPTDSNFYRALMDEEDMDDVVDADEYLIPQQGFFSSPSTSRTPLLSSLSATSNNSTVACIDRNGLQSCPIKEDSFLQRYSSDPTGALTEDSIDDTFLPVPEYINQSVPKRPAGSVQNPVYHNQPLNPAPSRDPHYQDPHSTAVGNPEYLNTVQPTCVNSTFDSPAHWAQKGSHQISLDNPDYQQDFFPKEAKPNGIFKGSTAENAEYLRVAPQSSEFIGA
Chain of Insulin receptor (P06213 28-758 limits assumed): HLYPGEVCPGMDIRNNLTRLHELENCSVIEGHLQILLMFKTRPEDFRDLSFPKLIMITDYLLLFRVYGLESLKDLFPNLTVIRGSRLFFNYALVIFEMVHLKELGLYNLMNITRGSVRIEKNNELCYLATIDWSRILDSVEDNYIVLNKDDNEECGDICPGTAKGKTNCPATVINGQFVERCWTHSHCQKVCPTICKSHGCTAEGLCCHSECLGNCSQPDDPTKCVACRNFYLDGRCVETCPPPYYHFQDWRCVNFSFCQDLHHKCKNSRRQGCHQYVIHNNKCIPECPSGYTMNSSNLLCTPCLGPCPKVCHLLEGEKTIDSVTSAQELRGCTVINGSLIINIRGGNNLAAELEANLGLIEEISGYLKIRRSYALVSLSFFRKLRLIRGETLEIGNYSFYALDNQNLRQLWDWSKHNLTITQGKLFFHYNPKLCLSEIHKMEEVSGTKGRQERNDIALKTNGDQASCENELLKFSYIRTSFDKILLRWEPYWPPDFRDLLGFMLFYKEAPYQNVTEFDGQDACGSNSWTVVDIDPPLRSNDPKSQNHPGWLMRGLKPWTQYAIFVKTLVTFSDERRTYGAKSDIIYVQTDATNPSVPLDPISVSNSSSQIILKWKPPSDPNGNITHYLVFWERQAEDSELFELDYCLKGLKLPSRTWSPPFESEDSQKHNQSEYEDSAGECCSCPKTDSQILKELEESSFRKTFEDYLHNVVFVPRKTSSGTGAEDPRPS
Chain of Insulin receptor (P06213 763-1382 limits assumed): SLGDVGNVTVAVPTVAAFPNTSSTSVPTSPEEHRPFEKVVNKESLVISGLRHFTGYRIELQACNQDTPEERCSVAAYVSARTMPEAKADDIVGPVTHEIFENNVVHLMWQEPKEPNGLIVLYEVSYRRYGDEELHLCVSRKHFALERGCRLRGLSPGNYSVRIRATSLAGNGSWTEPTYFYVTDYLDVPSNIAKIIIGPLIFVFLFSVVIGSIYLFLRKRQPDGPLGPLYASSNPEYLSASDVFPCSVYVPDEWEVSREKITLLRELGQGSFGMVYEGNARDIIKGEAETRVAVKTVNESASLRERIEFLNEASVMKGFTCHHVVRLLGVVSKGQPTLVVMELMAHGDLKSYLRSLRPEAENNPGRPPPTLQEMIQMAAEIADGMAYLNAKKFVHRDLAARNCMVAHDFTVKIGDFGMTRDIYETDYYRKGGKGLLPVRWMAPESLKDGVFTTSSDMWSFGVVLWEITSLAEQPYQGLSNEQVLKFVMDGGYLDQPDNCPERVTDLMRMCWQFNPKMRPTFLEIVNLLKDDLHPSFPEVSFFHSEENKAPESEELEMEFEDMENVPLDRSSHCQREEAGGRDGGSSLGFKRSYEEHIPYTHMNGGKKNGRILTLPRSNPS
Chain of Cannabinoid receptor 1 (P21554 whole entry): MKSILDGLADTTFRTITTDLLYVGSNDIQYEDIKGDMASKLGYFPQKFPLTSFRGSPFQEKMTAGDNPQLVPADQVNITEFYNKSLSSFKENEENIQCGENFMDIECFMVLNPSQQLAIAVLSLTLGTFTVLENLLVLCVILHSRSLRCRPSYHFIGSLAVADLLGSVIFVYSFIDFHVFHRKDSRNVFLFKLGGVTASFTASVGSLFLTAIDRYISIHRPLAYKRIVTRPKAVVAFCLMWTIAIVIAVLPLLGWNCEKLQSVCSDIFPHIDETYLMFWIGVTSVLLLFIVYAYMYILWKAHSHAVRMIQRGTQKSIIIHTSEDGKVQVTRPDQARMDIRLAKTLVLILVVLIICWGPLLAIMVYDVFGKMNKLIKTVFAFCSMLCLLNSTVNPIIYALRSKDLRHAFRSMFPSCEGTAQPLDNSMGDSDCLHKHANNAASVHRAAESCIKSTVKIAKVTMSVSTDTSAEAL
Chain of Prostacyclin receptor (P43119 whole entry): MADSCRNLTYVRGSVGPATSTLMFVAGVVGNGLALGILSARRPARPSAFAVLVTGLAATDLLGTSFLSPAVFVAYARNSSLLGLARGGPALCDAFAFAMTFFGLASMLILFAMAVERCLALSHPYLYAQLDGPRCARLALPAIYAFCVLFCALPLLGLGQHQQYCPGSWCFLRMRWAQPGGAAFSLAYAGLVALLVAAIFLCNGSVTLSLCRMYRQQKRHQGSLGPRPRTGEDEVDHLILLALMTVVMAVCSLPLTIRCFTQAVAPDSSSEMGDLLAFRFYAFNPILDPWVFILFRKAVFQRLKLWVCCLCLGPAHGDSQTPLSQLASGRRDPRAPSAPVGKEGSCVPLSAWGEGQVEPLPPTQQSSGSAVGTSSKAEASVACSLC
Chain of Caspase-8 (Q14790 217-374 limits assumed): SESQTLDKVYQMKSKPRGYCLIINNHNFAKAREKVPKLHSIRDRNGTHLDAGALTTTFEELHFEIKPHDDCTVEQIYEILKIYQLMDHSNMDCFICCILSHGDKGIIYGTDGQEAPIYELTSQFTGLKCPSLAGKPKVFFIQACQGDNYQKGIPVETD
Chain of Caspase-8 (Q14790 385-479 limits assumed): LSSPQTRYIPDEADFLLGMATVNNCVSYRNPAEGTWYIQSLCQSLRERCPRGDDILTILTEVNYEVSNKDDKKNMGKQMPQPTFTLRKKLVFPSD
Chain of Cytochrome P450 2C9 (P11712 whole entry): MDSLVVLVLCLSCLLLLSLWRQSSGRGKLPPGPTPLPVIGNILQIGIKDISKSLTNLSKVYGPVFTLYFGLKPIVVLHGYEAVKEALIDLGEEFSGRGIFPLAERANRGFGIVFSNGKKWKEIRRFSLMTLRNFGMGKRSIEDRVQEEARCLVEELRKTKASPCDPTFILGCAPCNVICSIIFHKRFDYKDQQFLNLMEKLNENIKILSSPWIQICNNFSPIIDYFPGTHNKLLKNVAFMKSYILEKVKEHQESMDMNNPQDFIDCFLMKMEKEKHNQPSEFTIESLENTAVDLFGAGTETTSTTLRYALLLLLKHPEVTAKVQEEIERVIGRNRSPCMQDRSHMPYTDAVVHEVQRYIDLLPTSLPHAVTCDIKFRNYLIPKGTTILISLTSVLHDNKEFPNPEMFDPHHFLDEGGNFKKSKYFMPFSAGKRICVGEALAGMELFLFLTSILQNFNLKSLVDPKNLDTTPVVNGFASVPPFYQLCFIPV

CCC1CN(C(=O)Nc2ccccc2)c2ccc(-c3ccc(OCC(C)(C)C(=O)O)nc3)cc2O1 (stereo unspecified)
AUC [1]: 46 µM·h
inhibition in vivo at 1 mg/kg (Mus musculus [2]): 100%
inhibition in vivo at 0.3 mg/kg (Mus musculus [3]): 73%
IC50 (Cytochrome P450 2C9): 0.5 µM
IC50 [4]: 0.073 µM

CCc1ccccc1NC(=O)N1C[C@@H](C)Oc2cc(-c3ccc([C@H]4CC[C@H](CC(=O)O)CC4)cc3)ccc21
Cmax [5]: 9.1 µM
half-life [6]: 3 h
Activity (Mus musculus [7]): Active
IC50 [8]: > 10 µM
inhibition in vivo at 30 mg/kg (Mus musculus [9]): > 5%
bioavailability [10]: 75%
AUC [11]: 23 µM·h
IC50 (Insulin receptor): 5.7 µM
half-life [12]: 6.2 h
IC50 (Cannabinoid receptor 1): > 10 µM
IC50 [13]: > 10 µM
inhibition in vivo at 3 mg/kg (Mus musculus [14]): 87%
IC50 (Caspase-8): 6.8 µM
hepatocyte CLint [15]: 14 µL/min/1e6 cells
hepatocyte CLint [16]: 10 µL/min/1e6 cells
AUC [17]: 3.7 µM·h
IC50 [18]: > 10 µM
IC50 (Caspase-9): 5 µM
Papp [19]: 20.1 ×10⁻⁶ cm/s
Cmax [20]: 3.3 µM
IC50 [21]: 7.5 µM
AUC [22]: 64 µM·h
fraction unbound [23]: < 0.005
inhibition in vivo at 3 mg/kg (Mus musculus [24]): 93%
IC50 [25]: > 10 µM
Cmax [26]: 0.6 µM
half-life [27]: 3 h
IC50 (D(2) dopamine receptor): > 10 µM
bioavailability [28]: 89%
hepatocyte CLint [29]: 6.2 µL/min/1e6 cells
solubility [30]: 50 µM (≈ 25.6 µg/mL)
fraction unbound [31]: < 0.005
IC50 [32]: > 10 µM
Cmax [33]: 5.7 µM
AUC [34]: 41 µM·h
IC50 [4]: 0.044 µM
CLH (Hepatocyte): 14 µL/min/1e6 cells
IC50 (Prostacyclin receptor): 1 µM
IC50 [35]: 0.064 µM
hepatocyte CLint [36]: 16 µL/min/1e6 cells
half-life [37]: 3 h
